Measured values as given in US20200085776A1, “Methods of Reducing C-Reactive Protein and/or Treating Cardiovascular Disease” (CARDAX, INC., priority 2018, published 2020).

System: C-reactive protein (CRP)
Experiment: CRP (hs-CRP) in blood, CHASE clinical study
Type: in vivo, human
Settings: Group X 12 mg BID; for CRP Max / CRP Mean (SD) / CRP Median / CRP Min: V6 Week 12
From the text: This is a two-part study comprising Part I and Part II. Following screening, Part I consists of a randomized, double-blind, placebo controlled dosing period of up to 12 weeks. The study shall be conducted at one or more study sites in Hawaii. Approximately 360 subjects qualified after completion of screening procedures shall be randomized in a 1:1:1 ratio to one of three treatment groups, per Table 1.
The Part I 12-week double-blind dosing period commences with V2, including randomization and first dose of study product, and continues with study visits at Week 1-2 (V3), Week 4 (V4), Week 8 (V5), and Week 12 (V6). V6 procedures will conclude Part I.
Blood shall be obtained at each visit for CRP. The screening specimen shall be processed at the local lab and reported to the study staff for eligibility determination; CRP samples at V7 and V8 may also be processed locally and reported directly to study staff. Samples for CRP from V2 through V6 may be batched, processed, and reported as specified in the Laboratory Manual.
At each these visits, blood was obtained for measurement of CRP, among other parameters. Table 7A provides a summary of the CRP measurements (mg/L) at each visit and Table 7B provides a summary of the differences of CRP levels between V2 and V6.

[1] = subjects with DM2, hypertension and hyperlipidemia but not CAD
[2] = subjects with Diabetes Mellitus Type II
[3] = subjects with baseline level greater than 2.0
[4] = baseline to Week 12, all subjects
[5] = baseline to Week 12, subjects not taking a hypertension agent
[6] = baseline to Week 12, subjects not taking any cardiac therapeutic agent
[7] = baseline to Week 12, subjects not taking statins
[8] = baseline to Week 12, subjects taking an anti-diabetic agent
[9] = baseline to Week 12, subjects with CAD
[10] = baseline to Week 12, subjects with DM2, hypertension and hyperlipidemia but not CAD
[11] = baseline to Week 12, subjects with Diabetes Mellitus Type II
[12] = baseline to Week 12, subjects with baseline level greater than 2.0
[13] = baseline to Week 12, subjects with hyperlipidemia

CC1=C(/C=C/C(C)=C/C=C/C(C)=C/C=C/C=C(C)/C=C/C=C(C)/C=C/C2=C(C)C(=O)C(O)CC2(C)C)C(C)(C)CC(O)C1=O (stereo not drawn) [Astaxanthin, astaxanthin]
CRP Max [1]: 6.80 mg/L | CRP Mean (SD) [1]: 2.95 (2.32) mg/L | CRP Median [1]: 1.91 mg/L | CRP Min [1]: 1.02 mg/L | CRP Max [2]: 6.80 mg/L | CRP Mean (SD) [2]: 2.91 (2.07) mg/L | CRP Median [2]: 2.32 mg/L | CRP Min [2]: 1.02 mg/L | CRP Max [3]: 11.04 mg/L | CRP Mean (SD) [3]: 3.69 (3.14) mg/L | CRP Median [3]: 2.71 mg/L | CRP Min [3]: 0.22 mg/L | CRP Max (subjects with hyperlipidemia): 11.04 mg/L | CRP Mean (SD) (subjects with hyperlipidemia): 3.90 (3.38) mg/L | CRP Median (subjects with hyperlipidemia): 2.71 mg/L | CRP Min (subjects with hyperlipidemia): 1.02 mg/L | CRP V2 to V6 % Change Max [4]: 122.6% | CRP V2 to V6 % Change Mean [4]: −21.3% | CRP V2 to V6 % Change Median [4]: −31.8% | CRP V2 to V6 % Change Min [4]: −89.8% | CRP V2 to V6 Change Max [4]: 6.08 mg/L | CRP V2 to V6 Change Mean [4]: -2.07 mg/L | CRP V2 to V6 Change Median [4]: -1.57 mg/L | CRP V2 to V6 Change Min [4]: -11.1 mg/L | CRP V2 to V6 % Change Max [5]: −25.8, −25.8% | CRP V2 to V6 % Change Mean (SD) [5]: −25.8% | CRP V2 to V6 % Change Median [5]: −25.8% | CRP V2 to V6 % Change Min [5]: −25.8, −25.8% | CRP V2 to V6 Change Max [5]: −0.94, −0.94 mg/L | CRP V2 to V6 Change Mean (SD) [5]: -0.94 mg/L | CRP V2 to V6 Change Median [5]: -0.94 mg/L | CRP V2 to V6 Change Min [5]: −0.94, −0.94 mg/L | CRP V2 to V6 % Change Max [6]: −25.8% | CRP V2 to V6 % Change Mean (SD) [6]: −56.6 (29.46) % | CRP V2 to V6 % Change Median [6]: −61.9% | CRP V2 to V6 % Change Min [6]: −89.8% | CRP V2 to V6 Change Max [6]: -0.37 mg/L | CRP V2 to V6 Change Mean (SD) [6]: −4.28 (4.63) mg/L | CRP V2 to V6 Change Median [6]: -1.94 mg/L | CRP V2 to V6 Change Min [6]: -11.1 mg/L | CRP V2 to V6 % Change Max [7]: 122.6% | CRP V2 to V6 % Change Mean (SD) [7]: 2.34 (88.58) % | CRP V2 to V6 % Change Median [7]: −25.6% | CRP V2 to V6 % Change Min [7]: −89.8% | CRP V2 to V6 Change Max [7]: 6.08 mg/L | CRP V2 to V6 Change Mean (SD) [7]: −0.18 (4.04) mg/L | CRP V2 to V6 Change Median [7]: -0.80 mg/L | CRP V2 to V6 Change Min [7]: -5.89 mg/L | CRP V2 to V6 % Change** Max [8]: −26.6% | CRP V2 to V6 % Change** Mean (SD) [8]: −52.9 (20.70) % | CRP V2 to V6 % Change** Median [8]: −55.7% | CRP V2 to V6 % Change** Min [8]: −78.8% | CRP V2 to V6 Change Max [8]: -0.37 mg/L | CRP V2 to V6 Change Mean (SD) [8]: −4.61 (4.14) mg/L | CRP V2 to V6 Change Median [8]: -3.76 mg/L | CRP V2 to V6 Change Min [8]: -11.1 mg/L | CRP V2 to V6 % Change Max [9]: −68.4% | CRP V2 to V6 % Change Mean (SD) [9]: −68.4% | CRP V2 to V6 % Change Median [9]: −68.4% | CRP V2 to V6 % Change Min [9]: −68.48% | CRP V2 to V6 Change Max [9]: −5.89, −5.89 mg/L | CRP V2 to V6 Change Mean (SD) [9]: -5.89 mg/L | CRP V2 to V6 Change Median [9]: -5.89 mg/L | CRP V2 to V6 Change Min [9]: −5.89, −5.89 mg/L | CRP V2 to V6 % Change Max [10]: −26.6% | CRP V2 to V6 % Change Mean (SD) [10]: −49.7 (21.51) % | CRP V2 to V6 % Change Median [10]: −49.5% | CRP V2 to V6 % Change Min [10]: −78.8% | CRP V2 to V6 Change Max [10]: -0.37 mg/L | CRP V2 to V6 Change Mean (SD) [10]: −4.35 (4.57) mg/L | CRP V2 to V6 Change Median [10]: -1.63 mg/L | CRP V2 to V6 Change Min [10]: -11.1 mg/L | CRP V2 to V6 % Change Max [11]: −26.6% | CRP V2 to V6 % Change Mean (SD) [11]: −52.9 (20.70) % | CRP V2 to V6 % Change Median [11]: −55.7% | CRP V2 to V6 % Change Min [11]: −78.8% | CRP V2 to V6 Change Max [11]: -0.37 mg/L | CRP V2 to V6 Change Mean (SD) [11]: −4.61 (4.14) mg/L | CRP V2 to V6 Change Median [11]: -3.76 mg/L | CRP V2 to V6 Change Min [11]: -11.1 mg/L | CRP V2 to V6 % Change Max [12]: 122.6% | CRP V2 to V6 % Change Mean (SD) [12]: −20.8 (73.37) % | CRP V2 to V6 % Change Median [12]: −40.7% | CRP V2 to V6 % Change Min [12]: −89.8% | CRP V2 to V6 Change Max [12]: 6.08 mg/L | CRP V2 to V6 Change Mean (SD) [12]: −2.24 (4.83) mg/L | CRP V2 to V6 Change Median [12]: -1.60 mg/L | CRP V2 to V6 Change Min [12]: -11.1 mg/L | CRP V2 to V6 % Change Max [13]: 122.6% | CRP V2 to V6 % Change Mean (SD) [13]: −27.5 (63.84) % | CRP V2 to V6 % Change Median [13]: −40.7% | CRP V2 to V6 % Change Min [13]: −78.8% | CRP V2 to V6 Change Max [13]: 6.08 mg/L | CRP V2 to V6 Change Mean (SD) [13]: −2.81 (5.17) mg/L | CRP V2 to V6 Change Median [13]: -1.60 mg/L | CRP V2 to V6 Change Min [13]: -11.1 mg/L
